{"source": "paper PMC8449129", "about": "“Single tracer-based protocol for broad-spectrum kinase profiling in live cells with NanoBRET” (STAR Protocols, 2021)", "key": {"[1]": {"molecular_target": "T1, AXL (Homo sapiens, UniProt P30530)", "T1 construct": "full-length kinase, C-terminal NanoLuc fusion, transfected HEK293 cells", "assay": "NanoBRET target engagement, Tracer K10 displacement in live HEK293 cells", "type": "cell-based", "settings": "[…] h, […] C, n = […]"}, "[2]": {"molecular_target": "T2, EPHA1 (Homo sapiens, UniProt P21709)", "T2 construct": "full-length kinase, C-terminal NanoLuc fusion, transfected HEK293 cells", "T2 sequence (P21709 26-976)": "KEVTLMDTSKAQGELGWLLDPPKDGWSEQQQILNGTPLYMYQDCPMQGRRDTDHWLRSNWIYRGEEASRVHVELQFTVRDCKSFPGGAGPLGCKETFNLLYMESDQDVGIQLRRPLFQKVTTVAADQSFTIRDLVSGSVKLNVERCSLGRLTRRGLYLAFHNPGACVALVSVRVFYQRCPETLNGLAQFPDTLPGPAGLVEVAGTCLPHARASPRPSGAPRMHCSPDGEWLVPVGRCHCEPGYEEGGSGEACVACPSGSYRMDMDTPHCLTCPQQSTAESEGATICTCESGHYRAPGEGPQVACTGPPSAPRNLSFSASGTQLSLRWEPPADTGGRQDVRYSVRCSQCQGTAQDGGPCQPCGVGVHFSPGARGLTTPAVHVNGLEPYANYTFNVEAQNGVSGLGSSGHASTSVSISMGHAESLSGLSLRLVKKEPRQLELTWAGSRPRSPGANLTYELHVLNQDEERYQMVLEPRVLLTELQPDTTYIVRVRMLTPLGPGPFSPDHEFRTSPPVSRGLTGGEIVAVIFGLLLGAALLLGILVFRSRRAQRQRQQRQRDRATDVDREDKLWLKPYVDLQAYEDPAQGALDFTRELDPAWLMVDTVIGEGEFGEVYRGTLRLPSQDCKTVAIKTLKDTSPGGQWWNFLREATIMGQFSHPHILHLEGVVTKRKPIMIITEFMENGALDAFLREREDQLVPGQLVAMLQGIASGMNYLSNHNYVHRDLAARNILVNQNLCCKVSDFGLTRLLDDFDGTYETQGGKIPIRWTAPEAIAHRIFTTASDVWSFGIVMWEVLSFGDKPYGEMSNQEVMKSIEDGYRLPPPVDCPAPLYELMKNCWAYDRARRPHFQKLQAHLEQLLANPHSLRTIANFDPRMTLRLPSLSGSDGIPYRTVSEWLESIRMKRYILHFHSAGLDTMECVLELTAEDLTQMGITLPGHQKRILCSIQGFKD", "assay": "NanoBRET target engagement, Tracer K10 displacement in live HEK293 cells", "type": "cell-based", "settings": "[…] h, […] C, n = […]"}, "[3]": {"molecular_target": "T3, EPHB1 (Homo sapiens, UniProt P54762)", "T3 construct": "full-length kinase, C-terminal NanoLuc fusion, transfected HEK293 cells", "T3 sequence (P54762 18-984)": "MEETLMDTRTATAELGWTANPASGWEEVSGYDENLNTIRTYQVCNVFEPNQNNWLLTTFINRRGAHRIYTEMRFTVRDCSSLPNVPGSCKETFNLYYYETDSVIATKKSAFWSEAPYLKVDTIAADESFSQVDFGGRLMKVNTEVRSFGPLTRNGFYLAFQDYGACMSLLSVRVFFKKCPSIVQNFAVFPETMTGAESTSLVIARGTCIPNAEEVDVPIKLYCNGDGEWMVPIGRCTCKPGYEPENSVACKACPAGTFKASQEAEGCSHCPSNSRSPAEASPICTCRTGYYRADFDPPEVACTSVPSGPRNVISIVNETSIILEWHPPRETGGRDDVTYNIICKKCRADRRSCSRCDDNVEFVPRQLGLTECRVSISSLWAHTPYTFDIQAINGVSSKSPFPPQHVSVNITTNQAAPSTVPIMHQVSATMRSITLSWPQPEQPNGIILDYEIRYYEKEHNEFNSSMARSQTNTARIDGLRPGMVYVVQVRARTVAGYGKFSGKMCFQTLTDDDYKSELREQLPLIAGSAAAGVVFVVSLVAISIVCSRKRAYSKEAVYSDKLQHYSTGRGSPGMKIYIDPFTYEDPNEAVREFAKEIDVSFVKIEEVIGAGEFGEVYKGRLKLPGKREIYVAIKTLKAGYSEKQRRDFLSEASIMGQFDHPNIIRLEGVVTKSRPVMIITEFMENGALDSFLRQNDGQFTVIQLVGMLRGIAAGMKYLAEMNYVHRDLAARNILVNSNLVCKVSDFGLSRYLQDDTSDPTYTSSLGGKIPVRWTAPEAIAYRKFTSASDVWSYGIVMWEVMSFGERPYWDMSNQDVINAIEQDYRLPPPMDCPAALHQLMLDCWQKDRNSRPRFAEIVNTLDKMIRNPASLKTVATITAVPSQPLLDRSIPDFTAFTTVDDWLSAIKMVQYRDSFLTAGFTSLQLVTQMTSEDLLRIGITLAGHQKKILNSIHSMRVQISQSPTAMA", "assay": "NanoBRET target engagement, Tracer K10 displacement in live HEK293 cells", "type": "cell-based", "settings": "[…] h, […] C, n = […]"}, "[4]": {"molecular_target": "CDKL1 (Homo sapiens, UniProt Q00532)", "sequence (Q00532 whole entry, the tested form may be a part)": "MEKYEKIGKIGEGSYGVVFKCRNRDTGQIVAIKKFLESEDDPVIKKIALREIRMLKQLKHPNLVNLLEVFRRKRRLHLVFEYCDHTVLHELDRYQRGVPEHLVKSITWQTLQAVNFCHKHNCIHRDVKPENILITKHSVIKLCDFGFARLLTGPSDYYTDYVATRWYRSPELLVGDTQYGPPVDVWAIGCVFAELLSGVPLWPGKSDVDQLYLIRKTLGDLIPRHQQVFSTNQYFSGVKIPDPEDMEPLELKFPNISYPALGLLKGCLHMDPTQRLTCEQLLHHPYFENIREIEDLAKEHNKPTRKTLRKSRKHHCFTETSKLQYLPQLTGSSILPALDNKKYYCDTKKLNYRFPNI", "assay": "cell-based", "design": "NanoBRET live-cell target engagement; % occupancy from displacement of tracer K10 on NanoLuc-kinase fusions, mean n=3", "settings": "HEK293, read-out: % inhibition", "protocol": "(§1) • 18. Prepare 10× test compounds in OptiMEM • a. Dilute the test compound to 1000× in DMSO (or the test compound solvent). […] Add 10μL per well of 10× test compound or 10μL of the DMSO control to the 96-well plates containing cells with 1× tracer. Mix on orbital shaker for 15 s at 900 rpm. • 20. Incubate the plate at 37°C + 5% CO2 incubator for 2hr. Allow plate to cool to RT for ∼15 min, then proceed to NanoBRET^TM Assay section below. • 21. Immediately before the BRET measurements, prepare 3× Complete NanoBRET^TM Nano-Glo® Substrate in OptiMEM without serum or phenol red. […] Mix gently by inverting 5–10 times in a conical tube. (The final concentration of Extracellular NanoLuc inhibitor in the 3× solution is 60 μM, for a working concentration of 20 μM.) • a. Note: 3× solutions should be used within 1.5 h after preparation. • 22. […] Incubate 2–3 min at RT. Following addition of NanoBRET^TM Nano-Glo® Substrate, measure donor emission (e.g., 450 nm) and acceptor emission (e.g., 610 nm or 630 nm) using a NanoBRET™-compatible luminometer. Fractional occupancy Quantitation • 2. Determine Fractional Occupancy with the following equation; % Occupancy = [1 – (X – Z)/( Y – Z)]∗100 • Where: • X = BRET in the presence of the test compound and tracer, • Y = BRET in the presence of the 100% BRET Control (Tracer + DMSO) • Z = BRET for the Zero BRET Control, e.g., • a. BRET from the NanoLuc Control Vector • b. BRET from Kinase/NanoLuc fusion + saturating dose of control test compound."}, "[5]": {"molecular_target": "MAP3K4 (Homo sapiens, UniProt Q9Y6R4)", "assay": "cell-based", "design": "NanoBRET live-cell target engagement; % occupancy from displacement of tracer K10 on NanoLuc-kinase fusions, mean n=3", "settings": "HEK293, read-out: % inhibition", "protocol": "as §1"}, "[6]": {"molecular_target": "CDK18 (Homo sapiens, UniProt Q07002)", "sequence (Q07002 whole entry, the tested form may be a part)": "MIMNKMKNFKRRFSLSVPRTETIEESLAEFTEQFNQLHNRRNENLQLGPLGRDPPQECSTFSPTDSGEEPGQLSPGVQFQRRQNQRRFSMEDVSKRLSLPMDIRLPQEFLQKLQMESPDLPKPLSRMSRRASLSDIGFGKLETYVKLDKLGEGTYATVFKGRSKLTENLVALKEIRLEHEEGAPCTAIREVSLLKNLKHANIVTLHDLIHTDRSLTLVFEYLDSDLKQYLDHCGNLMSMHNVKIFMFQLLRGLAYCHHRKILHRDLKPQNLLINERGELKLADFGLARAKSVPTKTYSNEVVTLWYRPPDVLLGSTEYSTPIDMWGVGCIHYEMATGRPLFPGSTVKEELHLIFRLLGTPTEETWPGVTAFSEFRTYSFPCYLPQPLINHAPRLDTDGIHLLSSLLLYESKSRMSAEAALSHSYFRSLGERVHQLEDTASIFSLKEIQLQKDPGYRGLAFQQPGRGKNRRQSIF", "assay": "cell-based", "design": "NanoBRET live-cell target engagement; % occupancy from displacement of tracer K10 on NanoLuc-kinase fusions, mean n=3", "settings": "HEK293, read-out: % inhibition", "protocol": "as §1"}, "[7]": {"molecular_target": "TEC (Homo sapiens, UniProt P42680)", "assay": "cell-based", "design": "NanoBRET live-cell target engagement; % occupancy from displacement of tracer K10 on NanoLuc-kinase fusions, mean n=3", "settings": "HEK293, read-out: % inhibition", "protocol": "as §1"}, "[8]": {"molecular_target": "CDK4 (Homo sapiens, UniProt P11802)", "sequence (P11802 whole entry, the tested form may be a part)": "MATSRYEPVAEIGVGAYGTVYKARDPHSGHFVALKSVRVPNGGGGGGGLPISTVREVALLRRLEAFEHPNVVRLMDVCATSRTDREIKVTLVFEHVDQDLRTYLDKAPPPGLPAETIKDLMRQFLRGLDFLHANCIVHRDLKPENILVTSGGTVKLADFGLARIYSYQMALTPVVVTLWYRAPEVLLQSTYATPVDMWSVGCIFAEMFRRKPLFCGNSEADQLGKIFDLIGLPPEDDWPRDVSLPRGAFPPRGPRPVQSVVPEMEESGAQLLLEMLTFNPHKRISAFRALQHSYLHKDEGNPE", "assay": "cell-based", "design": "NanoBRET live-cell target engagement; % occupancy from displacement of tracer K10 on NanoLuc-kinase fusions, mean n=3", "settings": "HEK293, read-out: % inhibition", "protocol": "as §1"}, "[9]": {"molecular_target": "CDK1 (Homo sapiens, UniProt P06493)", "assay": "cell-based", "design": "NanoBRET live-cell target engagement; % occupancy from displacement of tracer K10 on NanoLuc-kinase fusions, mean n=3", "settings": "HEK293, read-out: % inhibition", "protocol": "as §1"}, "[10]": {"molecular_target": "T4, ICK (Homo sapiens, UniProt Q9UPZ9)", "T4 construct": "gene CILK1", "assay": "cell-based", "design": "NanoBRET live-cell target engagement; % occupancy from displacement of tracer K10 on NanoLuc-kinase fusions, mean n=3", "settings": "HEK293, read-out: % inhibition", "protocol": "as §1"}, "[11]": {"molecular_target": "TEK (Homo sapiens, UniProt Q02763)", "assay": "cell-based", "design": "NanoBRET live-cell target engagement; % occupancy from displacement of tracer K10 on NanoLuc-kinase fusions, mean n=3", "settings": "HEK293, read-out: % inhibition", "protocol": "as §1"}, "[12]": {"molecular_target": "CLK2 (Homo sapiens, UniProt P49760)", "sequence (P49760 whole entry, the tested form may be a part)": "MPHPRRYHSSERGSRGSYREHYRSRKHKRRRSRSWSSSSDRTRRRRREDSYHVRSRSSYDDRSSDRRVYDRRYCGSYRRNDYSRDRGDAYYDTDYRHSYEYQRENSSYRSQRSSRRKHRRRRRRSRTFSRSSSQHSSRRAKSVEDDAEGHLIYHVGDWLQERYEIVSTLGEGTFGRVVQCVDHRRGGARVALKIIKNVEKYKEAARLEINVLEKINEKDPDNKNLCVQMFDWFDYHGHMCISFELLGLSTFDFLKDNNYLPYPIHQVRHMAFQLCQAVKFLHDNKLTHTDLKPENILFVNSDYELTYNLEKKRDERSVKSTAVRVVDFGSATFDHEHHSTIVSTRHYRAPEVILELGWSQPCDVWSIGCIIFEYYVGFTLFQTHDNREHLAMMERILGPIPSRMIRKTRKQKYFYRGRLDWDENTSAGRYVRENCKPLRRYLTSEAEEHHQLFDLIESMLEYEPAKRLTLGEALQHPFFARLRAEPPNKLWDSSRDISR", "assay": "cell-based", "design": "NanoBRET live-cell target engagement; % occupancy from displacement of tracer K10 on NanoLuc-kinase fusions, mean n=3", "settings": "HEK293, read-out: % inhibition", "protocol": "as §1"}, "[13]": {"molecular_target": "T5, EPHA4 (Homo sapiens, UniProt P54764)", "T5 construct": "full-length kinase, C-terminal NanoLuc fusion, transfected HEK293 cells", "T5 sequence (P54764 20-986)": "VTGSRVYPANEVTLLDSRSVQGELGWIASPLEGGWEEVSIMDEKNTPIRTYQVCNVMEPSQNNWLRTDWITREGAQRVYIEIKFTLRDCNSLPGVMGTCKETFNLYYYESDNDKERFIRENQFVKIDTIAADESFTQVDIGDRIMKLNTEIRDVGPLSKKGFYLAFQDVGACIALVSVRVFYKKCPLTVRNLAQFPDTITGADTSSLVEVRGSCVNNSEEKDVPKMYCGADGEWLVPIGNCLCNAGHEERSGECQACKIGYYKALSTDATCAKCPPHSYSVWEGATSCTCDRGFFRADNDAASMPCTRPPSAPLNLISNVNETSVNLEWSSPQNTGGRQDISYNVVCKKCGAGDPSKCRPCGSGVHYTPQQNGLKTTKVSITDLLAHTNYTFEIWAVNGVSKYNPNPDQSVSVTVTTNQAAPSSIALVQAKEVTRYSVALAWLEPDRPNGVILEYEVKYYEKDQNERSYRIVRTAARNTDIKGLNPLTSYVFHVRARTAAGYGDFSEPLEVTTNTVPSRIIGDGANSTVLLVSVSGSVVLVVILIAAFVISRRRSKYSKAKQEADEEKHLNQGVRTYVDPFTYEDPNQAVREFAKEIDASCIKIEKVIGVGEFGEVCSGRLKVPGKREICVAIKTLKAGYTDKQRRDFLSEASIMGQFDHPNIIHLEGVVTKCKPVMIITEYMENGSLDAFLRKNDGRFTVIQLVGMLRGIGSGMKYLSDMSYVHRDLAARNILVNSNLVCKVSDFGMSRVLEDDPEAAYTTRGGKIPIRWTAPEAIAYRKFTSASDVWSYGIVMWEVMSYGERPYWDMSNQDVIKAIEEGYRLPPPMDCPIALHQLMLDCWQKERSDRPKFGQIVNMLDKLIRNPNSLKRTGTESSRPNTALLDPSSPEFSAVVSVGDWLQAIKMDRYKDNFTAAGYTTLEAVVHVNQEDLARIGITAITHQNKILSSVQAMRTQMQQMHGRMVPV", "assay": "NanoBRET target engagement, Tracer K10 displacement in live HEK293 cells", "type": "cell-based", "settings": "[…] h, […] C, n = […]"}, "[14]": {"molecular_target": "T6, SBK3 (Homo sapiens, UniProt P0C264)", "T6 construct": "full-length kinase, N-terminal NanoLuc fusion, transfected HEK293 cells", "assay": "NanoBRET target engagement, Tracer K10 displacement in live HEK293 cells", "type": "cell-based", "settings": "[…] h, […] C, n = […]"}, "[15]": {"molecular_target": "T7, EPHA6 (Homo sapiens, UniProt Q9UF33)", "T7 construct": "full-length kinase, C-terminal NanoLuc fusion, transfected HEK293 cells", "assay": "NanoBRET target engagement, Tracer K10 displacement in live HEK293 cells", "type": "cell-based", "settings": "[…] h, […] C, n = […]"}, "[16]": {"molecular_target": "T8, EPHA7 (Homo sapiens, UniProt Q15375)", "T8 construct": "full-length kinase, C-terminal NanoLuc fusion, transfected HEK293 cells", "assay": "NanoBRET target engagement, Tracer K10 displacement in live HEK293 cells", "type": "cell-based", "settings": "[…] h, […] C, n = […]"}, "[17]": {"molecular_target": "STK33 (Homo sapiens, UniProt Q9BYT3)", "assay": "cell-based", "design": "species or system HEK293; NanoBRET live-cell target engagement; % occupancy from displacement of tracer K10 on NanoLuc-kinase fusions, mean n=3", "settings": "HEK293; D=N; E=250; % occupancy, tracer K10 displacement", "protocol": "as §1, with “BRET from the NanoLuc Control Vector • b. BRET from Kinase/NanoLuc fusion + saturating dose of control test compound.” left out"}, "[18]": {"molecular_target": "LTK (Homo sapiens, UniProt P29376)", "assay": "cell-based", "design": "species or system HEK293; NanoBRET live-cell target engagement; % occupancy from displacement of tracer K10 on NanoLuc-kinase fusions, mean n=3", "settings": "D=C; E=100; % occupancy, tracer K10 displacement; 1 µM; binder", "protocol": "as §1, with “BRET from the NanoLuc Control Vector • b. BRET from Kinase/NanoLuc fusion + saturating dose of control test compound.” left out"}, "[19]": {"molecular_target": "T9, EPHB4 (Homo sapiens, UniProt P54760)", "T9 construct": "full-length kinase, C-terminal NanoLuc fusion, transfected HEK293 cells", "assay": "NanoBRET target engagement, Tracer K10 displacement in live HEK293 cells", "type": "cell-based", "settings": "[…] h, […] C, n = […]"}, "[20]": {"molecular_target": "T10, NTRK2 (Homo sapiens, UniProt Q16620)", "T10 construct": "full-length kinase, C-terminal NanoLuc fusion, transfected HEK293 cells", "assay": "NanoBRET target engagement, Tracer K10 displacement in live HEK293 cells", "type": "cell-based", "settings": "[…] h, […] C, n = […]"}, "[21]": {"molecular_target": "T11, NTRK1 (Homo sapiens, UniProt P04629)", "T11 construct": "full-length kinase, C-terminal NanoLuc fusion, transfected HEK293 cells", "assay": "NanoBRET target engagement, Tracer K10 displacement in live HEK293 cells", "type": "cell-based", "settings": "[…] h, […] C, n = […]"}, "[22]": {"molecular_target": "T12, AURKC (Homo sapiens, UniProt Q9UQB9)", "T12 construct": "full-length kinase, C-terminal NanoLuc fusion, transfected HEK293 cells", "T12 sequence (Q9UQB9 whole entry, the tested form may be a part)": "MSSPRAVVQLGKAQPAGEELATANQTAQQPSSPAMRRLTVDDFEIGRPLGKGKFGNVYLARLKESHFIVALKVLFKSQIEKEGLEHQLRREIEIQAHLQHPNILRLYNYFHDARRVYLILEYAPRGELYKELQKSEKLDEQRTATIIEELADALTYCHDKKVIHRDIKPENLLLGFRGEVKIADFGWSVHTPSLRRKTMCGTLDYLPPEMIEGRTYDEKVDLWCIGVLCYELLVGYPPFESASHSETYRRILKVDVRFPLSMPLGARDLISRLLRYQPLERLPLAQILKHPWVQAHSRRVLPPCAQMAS", "assay": "NanoBRET target engagement, Tracer K10 displacement in live HEK293 cells", "type": "cell-based", "settings": "[…] h, […] C, n = […]"}}}
{"molecule": "C[C@@H](Oc1cc(-c2cnn(C3CCNCC3)c2)cnc1N)c1c(Cl)ccc(F)c1Cl", "note": "[crizotinib]", "values": [{"measurement": "Crizotinib % occupancy, 1 uM", "setting": "[1]", "value": "68 ± 1.5", "unit": "%"}, {"measurement": "Crizotinib % occupancy, 1 uM", "setting": "[2]", "value": "75 ± 2.2", "unit": "%"}, {"measurement": "Crizotinib % occupancy, 1 uM", "setting": "[3]", "value": "68 ± 2.0", "unit": "%"}, {"measurement": "inhibition at 1 µM", "setting": "[4]", "value": 2, "unit": "%"}, {"measurement": "inhibition at 1 µM", "setting": "[5]", "value": -1, "unit": "%"}, {"measurement": "inhibition at 1 µM", "setting": "[6]", "value": 2, "unit": "%"}, {"measurement": "inhibition at 1 µM", "setting": "[7]", "value": -7, "unit": "%"}, {"measurement": "inhibition at 1 µM", "setting": "[8]", "value": 4, "unit": "%"}, {"measurement": "inhibition at 1 µM", "setting": "[9]", "value": 7, "unit": "%"}, {"measurement": "inhibition at 1 µM", "setting": "[10]", "value": 3, "unit": "%"}, {"measurement": "inhibition at 1 µM", "setting": "[11]", "value": 37, "unit": "%"}, {"measurement": "inhibition at 1 µM", "setting": "[12]", "value": 1, "unit": "%"}, {"measurement": "Crizotinib % occupancy, 1 uM", "setting": "[13]", "value": "53 ± 4.4", "unit": "%"}, {"measurement": "Crizotinib % occupancy, 1 uM", "setting": "[14]", "value": "41 ± 5.6", "unit": "%"}, {"measurement": "Crizotinib % occupancy, 1 uM", "setting": "[15]", "value": "64 ± 5.1", "unit": "%"}, {"measurement": "Crizotinib % occupancy, 1 uM", "setting": "[16]", "value": "38 ± 2.4", "unit": "%"}, {"measurement": "inhibition at 1 µM", "setting": "[17]", "value": -3, "unit": "%"}, {"measurement": "% inhibition", "setting": "[18]", "value": 87, "unit": "%"}, {"measurement": "Crizotinib % occupancy, 1 uM", "setting": "[19]", "value": "62 ± 3.6", "unit": "%"}, {"measurement": "Crizotinib % occupancy, 1 uM", "setting": "[20]", "value": "85 ± 2.3", "unit": "%"}, {"measurement": "Crizotinib % occupancy, 1 uM", "setting": "[21]", "value": "71 ± 2.5", "unit": "%"}, {"measurement": "Crizotinib % occupancy, 1 uM", "setting": "[22]", "value": "48 ± 4.2", "unit": "%"}]}
